Columns and labels:
Mus musculus [1] = test: Acute toxicity in mouse assessed as abnormality in drinking at 196.1 umol/kg, ip after 14 days; type: organism-based; conditions: in vivo, 336 h
Mus musculus [2] = test: Acute toxicity in mouse assessed as mortality at 196.1 umol/kg, ip after 14 days; type: organism-based; conditions: in vivo, 336 h
Plasma = test: Metabolic stability in Sprague-Dawley rat plasma at 40 uM after 6 hrs by HPLC analysis; type: ADME, cell-free
H22 [3] = test: Antitumor activity against mouse H22 cells […] in mouse assessed as inhibition of tumor growth at 9.6 umol/kg, ip after 14 days relative to vehicle-treated control; type: functional; conditions: 336 h
HepG2 [4] = test: Cytotoxicity against human HepG2 cells after 72 hrs by MTT assay; type: functional, cell-based; conditions: HepG2, 72 h
[5] = Acute toxicity in ip dosed mouse after 14 days; type: organism-based; conditions: in vivo
HepG2 [6] = test: Induction of intracellular NO release in human HepG2 cells at 30 uM after 6 hrs by Griess assay relative to PABA/NO; type: functional
HepG2 [7] = test: Cytotoxicity against human HepG2 cells assessed as cell viability at 3 uM after 24 hrs by MTT assay in presence of EA; type: functional; conditions: HepG2, 24 h, read-out: Activity
Mus musculus [8] = test: Acute toxicity in mouse assessed as body weight at 196.1 umol/kg, ip after 14 days; type: organism-based; conditions: in vivo, 336 h
[9] = Metabolic stability in Sprague-Dawley rat plasma at 40 uM after 9 hrs by HPLC analysis; type: ADME, cell-free; conditions: read-out: Stability
HepG2 [10] = test: Induction of intracellular NO release in human HepG2 cells at 30 uM after 6 hrs by Griess assay relative to JS-K; type: functional
[11] = Chemical stability in PBS buffer at pH 7.4 in presence of 1 mM GSH at room temperature for 30 mins by spectrophotometry; type: physicochemical; conditions: pH 7.4, 0.5 h
H22 [12] = test: Antitumor activity against mouse H22 cells […] in mouse assessed as inhibition of tumor growth at 38.3 umol/kg, ip after 14 days relative to vehicle-treated control; type: functional; conditions: 336 h
HepG2 [13] = test: Cytotoxicity against human HepG2 cells after 48 hrs by MTT assay; type: functional, cell-based; conditions: HepG2, 48 h
Mus musculus [14] = test: Acute toxicity in mouse assessed as mortality at 383.1 umol/kg, ip after 14 days; type: organism-based; conditions: in vivo, 336 h
H22 [15] = test: Antitumor activity against mouse H22 cells […] in mouse assessed as inhibition of tumor growth at 19.2 umol/kg, ip after 14 days relative to vehicle-treated control; type: functional; conditions: 336 h
Mus musculus [16] = test: Acute toxicity in mouse assessed as abnormality in eating at 196.1 umol/kg, ip after 14 days; type: organism-based; conditions: in vivo, 336 h
HepG2 [17] = test: Cytotoxicity against human HepG2 cells at 30 uM after 24 hrs by MTT assay; type: functional
[18] = Cytotoxicity against human LO2 cells at 1 to 4 uM after 24 hrs by MTT assay; type: cell-based; conditions: l02, 24 h
[19] = Activity at GSTalpha (unknown origin) assessed as compound decomposition in presence of 1mM GSH at 40 uM by microplate reader analysis; type: ADME; conditions: human
SMMC-7721 [20] = test: Cytotoxicity against human SMMC7721 cells at 30 uM after 24 hrs by MTT assay; type: functional
[21] = target: Glutathione S-transferase P (Homo sapiens, UniProt P09211); test: Activity at GSTpi (unknown origin) assessed as compound decomposition in presence of 1mM GSH at 40 uM by microplate reader analysis; type: ADME
Glutathione S-transferase P, sequence (P09211 whole entry): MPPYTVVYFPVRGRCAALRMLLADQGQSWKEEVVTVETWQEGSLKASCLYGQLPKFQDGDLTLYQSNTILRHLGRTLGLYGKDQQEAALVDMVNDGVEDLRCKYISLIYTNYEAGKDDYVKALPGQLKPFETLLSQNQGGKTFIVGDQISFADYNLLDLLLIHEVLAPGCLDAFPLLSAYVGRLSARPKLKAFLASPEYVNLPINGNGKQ

HepG2 [22] = test: Cytotoxicity against human HepG2 cells after 24 hrs by MTT assay; type: functional, cell-based; conditions: HepG2, 24 h
SMMC-7721 [23] = test: Cytotoxicity against human SMMC7721 cells after 72 hrs by MTT assay; type: functional, cell-based; conditions: SMMC-7721, 72 h
Bel-7402 [24] = test: Cytotoxicity against human Bel7402 cells at 30 uM after 24 hrs by MTT assay; type: functional
[25] = Activity at GSTalpha (unknown origin) assessed per mg protein by Michaelis-Menten equation; type: ADME; conditions: human
[26] = (§1) Activity at GSTalpha (unknown origin) by Michaelis-Menten equation; type: ADME; conditions: human
GSTalpha = test: as §1; type: ADME; conditions: human, GSTalpha enzyme
[27] = Chemical stability in PBS buffer at pH 7.4 in presence of 5 mM GSH at 37 degC after 100 mins by HPLC analysis; type: physicochemical; conditions: PBS buffer with 5 mM GSH, read-out: Stability
Bel-7402 [28] = test: Cytotoxicity against human Bel7402 cells after 72 hrs by MTT assay; type: functional, cell-based; conditions: Bel-7402, 72 h
HepG2 [29] = test: Cytotoxicity against human HepG2 cells assessed as cell viability at 3 uM after 24 hrs by MTT assay; type: functional; conditions: HepG2, 24 h, read-out: Activity
Mus musculus [30] = test: Acute toxicity in mouse assessed as activity at 196.1 umol/kg, ip after 14 days; type: organism-based; conditions: in vivo, 336 h
[31] = Chemical stability in PBS buffer at pH 7.4 in presence of 4 mM GSH at 37 degC after 15 to 20 mins by HPLC analysis; type: physicochemical
H22 [32] = test: Antitumor activity against mouse H22 cells […] in mouse assessed as inhibition of tumor growth at 153.8 umol/kg, ip after 14 days relative to vehicle-treated control; type: functional; conditions: 336 h

## CN(CCO)/[N+]([O-])=N\Oc1cc(N2CCN(CC(=O)O[C@H]3CC[C@]4(C)[C@H]5CC=C6[C@@H]7CC(C)(C)CC[C@]7(C(=O)O[C@@H]7O[C@H](CO)[C@H](O)[C@H](O)[C@H]7O)CC[C@@]6(C)[C@]5(C)CC[C@H]4C3(C)C)CC2)c([N+](=O)[O-])cc1[N+](=O)[O-]
Mus musculus [1]
  Activity: Non-toxic
Mus musculus [2]
  Activity: Non-toxic
Plasma
  Stability: Stable
H22 [3]
  inhibition in vivo at 9.6 µmol/kg: 13.4%
HepG2 [4]
  IC50: 1.41 µM
[5]
  LD50 at 336 h: 250 µmol/kg
HepG2 [6]
  Ratio: 2
HepG2 [7]
  viability at 3 µM: 41.7%
Mus musculus [8]
  Activity: Non-toxic
[9]
  remaining at 9 h, 40 µM: 80%
HepG2 [10]
  Ratio: 2
[11]
  Stability: Stable
H22 [12]
  inhibition in vivo at 38.3 µmol/kg: 68.4%
HepG2 [13]
  IC50: 2.11 µM
Mus musculus [14]
  Activity: Toxic
H22 [15]
  inhibition in vivo at 19.2 µmol/kg: 36.1%
Mus musculus [16]
  Activity: Non-toxic
HepG2 [17]
  Cytotoxicity: 80%
[18]
  Activity: Toxic
[19]
  Activity: Active
SMMC-7721 [20]
  Cytotoxicity: 80%
[21]
  Activity: Active
HepG2 [22]
  IC50: 3.38 µM
SMMC-7721 [23]
  IC50: 2.3 µM
Bel-7402 [24]
  Cytotoxicity: 80%
[25]
  Vmax: 1.69 µmol/min
[26]
  Kcat: 0.72 s⁻¹
GSTalpha
  Km: 264 µM
[27]
  remaining at 100 min: 78%
Bel-7402 [28]
  IC50: 1.45 µM
HepG2 [29]
  viability at 3 µM: 17%
Mus musculus [30]
  Activity: Non-toxic

## CN(CCO)/[N+]([O-])=N\Oc1cc(NCCC(=O)O[C@H]2CC[C@]3(C)[C@H]4CC=C5[C@@H]6CC(C)(C)CC[C@]6(C(=O)O[C@@H]6O[C@H](CO)[C@H](O)[C@H](O)[C@H]6O)CC[C@@]5(C)[C@]4(C)CC[C@H]3C2(C)C)c([N+](=O)[O-])cc1[N+](=O)[O-]
HepG2 [4]
  IC50: 2.05 µM
HepG2 [13]
  IC50: 3.56 µM
HepG2 [17]
  Cytotoxicity: >70%
SMMC-7721 [20]
  Cytotoxicity: >70%
HepG2 [22]
  IC50: 5.45 µM
SMMC-7721 [23]
  IC50: 3.97 µM
Bel-7402 [24]
  Cytotoxicity: >70%
Bel-7402 [28]
  IC50: 2.36 µM

## CN(CCO)/[N+]([O-])=N/Oc1cc(NCC(=O)O[C@H]2CC[C@]3(C)[C@H]4CC=C5[C@@H]6CC(C)(C)CC[C@]6(C(=O)O[C@@H]6O[C@H](CO)[C@H](O)[C@H](O)[C@H]6O)CC[C@@]5(C)[C@]4(C)CC[C@H]3C2(C)C)c([N+](=O)[O-])cc1[N+](=O)[O-]
HepG2 [4]
  IC50: 3.65 µM
HepG2 [13]
  IC50: 6.65 µM
HepG2 [22]
  IC50: 9.59 µM
SMMC-7721 [23]
  IC50: 7.44 µM
Bel-7402 [28]
  IC50: 5.68 µM

## C[C@H](Nc1cc(O/N=[N+](\[O-])N(C)CCO)c([N+](=O)[O-])cc1[N+](=O)[O-])C(=O)O[C@H]1CC[C@]2(C)[C@H]3CC=C4[C@@H]5CC(C)(C)CC[C@]5(C(=O)O[C@@H]5O[C@H](CO)[C@H](O)[C@H](O)[C@H]5O)CC[C@@]4(C)[C@]3(C)CC[C@H]2C1(C)C
HepG2 [4]
  IC50: 6.91 µM
HepG2 [13]
  IC50: 7.89 µM
HepG2 [22]
  IC50: 9.12 µM
SMMC-7721 [23]
  IC50: 8.84 µM
Bel-7402 [28]
  IC50: 7.38 µM

## CCOC(=O)N1CCN(/[N+]([O-])=N/Oc2ccc([N+](=O)[O-])cc2[N+](=O)[O-])CC1
HepG2 [4]
  IC50: 5.19 µM
[11]
  Stability: Stable
HepG2 [13]
  IC50: 7.12 µM
HepG2 [17]
  Cytotoxicity: 67%
SMMC-7721 [20]
  Cytotoxicity: 67%
[31]
  Stability: Unstable
HepG2 [22]
  IC50: 12.2 µM
SMMC-7721 [23]
  IC50: 7.31 µM
Bel-7402 [24]
  Cytotoxicity: 67%
Bel-7402 [28]
  IC50: 5.17 µM

## O=c1[nH]cc(F)c(=O)[nH]1 [FLUOROURACIL]
H22 [32]
  inhibition in vivo at 153.8 µmol/kg: 57.5%

Source: ChEMBL document CHEMBL2396531, “Hybrid molecule from O2-(2,4-dinitrophenyl)diazeniumdiolate and oleanolic acid: a glutathione S-transferase π-activated nitric oxide prodrug with selective anti-human hepatocellular carcinoma activity and improved stability” (J Med Chem, 2013)
